Values after ≈ are worked out from the molar mass of the structure shown. Where two headings read alike, the source gives them in different places. Residues, ends and D or L forms follow the SMILES beside them.
Legend:
[1] = test system: MT-4 cells; experiment: Cytotoxicity to MT-4 cells, MTT method; assay type: cell-based; conditions: 12000ng/ml to 24ng/ml, 6 days
Method: Then test drugs were added. […] Cell growth was subsequently determined by the MTT method.

[2] = test system: No.04 coronavirus
[3] = in vitro; conditions: human, 293 cells

| Compound | cell growth [1] | inhibition of coronavirus in 293 cell cultures [2] | treatment index (TI) [2] | half-inhibitory concentration (IC50) ([2]; 24 h) | minimum inhibitory concentration (MIC) ([2]; 24 h) | half-inhibitory concentration (IC50) [2] | minimum inhibitory concentration (MIC) [2] | CC50 at 144 h [3] | MNTC at 144 h [3] |
| --- | --- | --- | --- | --- | --- | --- | --- | --- | --- |
| CC(C)C[C@H](NC(=O)[C@H](CCCCN)NC(=O)[C@@H](N)Cc1ccc(O)cc1)C(=O)N1CCC[C@H]1C(=O)NCC(=O)N[C@@H](Cc1c[nH]cn1)C(=O)N[C@@H](Cc1c[nH]cn1)C(=O)N[C@@H](Cc1c[nH]cn1)C(=O)N[C@@H](Cc1c[nH]cn1)C(=O)N[C@@H](Cc1ccc(O)cc1)C(=O)N[C@@H](CCCNC(=N)N)C(=O)N1CCC[C@H]1C(=O)O [AP-9] (H-YKLPGHHHHYRP-OH; N-terminus and C-terminus assumed) | not affected | capable of inhibiting coronavirus | 32 | 15.6 ± 0 µg/mL | 31.3 ± 0 µg/mL (≈ 0.0203 mM) |  |  |  |  |
| AP-1: high-affinity peptide antagonist targeting HAb18G/CD147, amino acid sequence SEQ ID NO:3 (MTHDPVISLPTT) | not affected | capable of inhibiting coronavirus | 16 |  |  | 31.25 ± 0 µg/mL | 62.25 ± 0 µg/mL |  |  |
| AP-6: high-affinity peptide antagonist targeting HAb18G/CD147, amino acid sequence SEQ ID NO:8 (YPFHHKHWHRPN) | not affected | capable of inhibiting coronavirus | 16 |  |  | 31.25 ± 0 µg/mL | 62.25 ± 0 µg/mL |  |  |
| Nc1nc(O)c2ncn(COC(CO)CO)c2n1 [Ganciclovir, ganciclovir] |  |  |  |  |  |  |  | > 6000 µg/mL | > 6000 µg/mL |

Source: EP1632243A1 (priority 2003, dated 2004)
